Measurements from patent US4439448A, “Glutamine derivatives” (Mitsubishi Chemical Industries Ltd., priority 1980, dated 1984).
Counter-ions that a name gives are not always drawn.

How the values were obtained:
[1] = test system: plaque forming cells in the spleen of mice; experiment: TEST 2 effect on plaque forming cells in the spleen of mice inoculated with sheep red blood cells, Balb/c (Run 1); type: in vivo, mouse; settings: 4 weeks, intravascular sheep cells, four consecutive days
Protocol: (§1) Mice were inoculated by intravascular or intraperitoneal administration of 1×10^8 sheep cells per animal. Each group consisted of five mice. The test drug was administered orally or intraperitoneally for four consecutive days from the day when the sheep cells were administered.

[2] = test system: plaque forming cells in the spleen of mice; experiment: TEST 2 effect on plaque forming cells in the spleen of mice inoculated with sheep red blood cells, C3H/He (Run 2); type: in vivo, mouse; settings: 7 weeks, I.P. sheep cells, four consecutive days
Protocol: as §1

delayed hypersensitibity = experiment: TEST 3 effects on delayed hypersensitivity (sheep red blood cell paw edema); type: in vivo, mice, ddY strain; settings: four consecutive days
Protocol: Into the palms of the right rear limbs of mice (ddY strain, weighing 25-30 g) was injected 40 μl of sheep red blood cells the concentration of which was adjusted to 1×10^7 /40 μl. The test drug was administered intraperitoneally or orally for four consecutive days inclusive of the day of sheep red blood cell administration. Three days after the day of sheep red blood cell administration, 40 μl of sheep red blood cells which were adjusted to have a concentration of 5×10^8 /40 μl were administered into the palms of the left rear limbs. After 24 hours, the thickness of the palms of the right and left rear limbs was measured. The edema was expressed as the difference in thickness between the palms of the left and right rear limbs. The results are shown in FIG. 3, in which the edema in the medicated group is expressed as percent control which means the percentage of the edema found in the group in which physiological saline is applied (control group).

ddY mice = experiment: TEST 1 acute toxicity in mice; type: in vivo
Excerpt: The test drug was suspended in aqueous 50% solution of Tween 80 and administered to ddY mice weighing 20-25 g orally or intraperitoneally in doses indicated in Table 1 below.

[3] = test system: six strains as stipulated in the Labor Safety and Hygiene Law in Japan; experiment: mutagenicity test using six strains; type: cell-based; settings: ~100 μg/plate
rat adjuvant arthritis = experiment: TEST 4 effect on rat adjuvant arthritis; type: in vivo, Sprague-Dawley rats; settings: 27 consecutive days
Protocol: The test animals were Sprague-Dawley rats at the age of 8 weeks and each group consisted of ten animals. An intracutaneous injection of 0.05 ml of a suspension of 0.5 mg of Mycobacterium butyricum in liquid paraffin was applied to each animal at the paw of the right rear limb. For 27 consecutive days from the day before the adjuvant injection, Compound (2) was orally administered at doses of 3, 10 and 30 mg/kg with measurement of the volume of the paw.

[4] = 1,000 mg/kg IP, during 7 days after administration
[5] = 5,000 mg/kg PO, during 7 days after administration

Compound	% Control (edema, percentage of that in physiological saline control group) (delayed hypersensitibity; 30 mg/kg I.P.)	% Control (edema, percentage of that in physiological saline control group) (delayed hypersensitibity; 100 mg/kg P.O.)	% Control (edema, percentage of that in physiological saline control group) (delayed hypersensitibity; 3 mg/kg I.P.)	% Control (edema, percentage of that in physiological saline control group) (delayed hypersensitibity; 10 mg/kg I.P.)	% Control (edema, percentage of that in physiological saline control group) (delayed hypersensitibity; 30 mg/kg P.O.)	% Control (edema, percentage of that in physiological saline control group) (delayed hypersensitibity; 300 mg/kg P.O.)	other results
Cn1cnc([N+](=O)[O-])c1Sc1ncnc2nc[nH]c12 [Azathioprine, reference compound]	61.0%	58.2%	–	–	–	–	PFC × 2,500/spleen (Mean ± standard error) ([1]; 50 mg/kg P.O.): 22.8 ± 2.40 PFC × 2,500/spleen; PFC × 2,500/spleen (Mean ± standard error) ([2]; 50 mg/kg P.O.): 46.7 ± 1.2 PFC × 2,500/spleen
CCOC(=O)Cc1ccc(NC(=O)CC[C@@H](N)C(=O)O)cc1 [Compound (12), N-(4-Ethoxycarbonylmethylphenyl)-D-glutamine]	89.1%	81.7%	76.1%	107.9%	85.4%	80.7%	–
CCOC(=O)C(CC)c1ccc(NC(=O)CC[C@H](N)C(=O)O)cc1 (stereo partly drawn) [Compound (13), N-[4-(1-Ethoxycarbonyl-n-propyl)phenyl]-L-glutamine]	64.2%	87.4%	82.1%	70.5%	89.6%	75.7%	No. of dead mice/No. of test animals (ddY mice; mouse, in vivo): 0/5
CCOC(=O)C(C)(C)c1ccc(NC(=O)CC[C@H](N)C(=O)O)cc1 [Compound (14), N-[4-(1-Ethoxycarbonyl-1-methylethyl)phenyl]-L-glutamine]	71.9%	–	77.3%	72.6%	–	–	–
CCOC(=O)C(C)c1ccc(NC(=O)CC[C@H](N)C(=O)O)cc1 (stereo partly drawn) [Compound (15), N-[4-(1-Ethoxycarbonylethyl)phenyl]-L-glutamine]	67.6%	–	78.0%	62.6%	–	–	–
CCOC(=O)Cc1ccc(NC(=O)CC[C@H](N)C(=O)O)cc1 [Hydrochloride Compound (2)]	90.0%	75.7%	79.6%	90.7%	81.8%	67.2%	–
N-(2-Ethoxycarbonylmethylphenyl)-L-glutamine [Compound (7)]	86.8%	84.8%	92.4%	91.1%	92.8%	82.3%	–
N-(3-Ethoxycarbonylmethylphenyl)-L-glutamine [Compound (6)]	84.3%	82.8%	94.6%	83.2%	81.1%	83.1%	–
N-(4-Carboxymethylphenyl)-L-glutamine [Compound (2)]	62.3%	66.2%	69.7%	65.9%	78.8%	65.0%	mutagenicity [3]: negative in mutagenicity; No. of dead mice/No. of test animals (ddY mice; [4]): 0/5; No. of dead mice/No. of test animals (ddY mice; [5]): 0/5; PFC × 2,500/spleen (Mean ± standard error) ([1]; 30 mg/kg P.O.): 99.0 ± 4.60 PFC × 2,500/spleen; PFC × 2,500/spleen (Mean ± standard error) ([1]; 100 mg/kg P.O.): 91.8 ± 18.6 PFC × 2,500/spleen; PFC × 2,500/spleen (Mean ± standard error) ([1]; 300 mg/kg P.O.): 73.4 ± 12.7 PFC × 2,500/spleen; PFC × 2,500/spleen (Mean ± standard error) ([2]; 30 mg/kg P.O.): 113.0 ± 20.4 PFC × 2,500/spleen; PFC × 2,500/spleen (Mean ± standard error) ([2]; 100 mg/kg P.O.): 160.0 ± 20.6 PFC × 2,500/spleen; PFC × 2,500/spleen (Mean ± standard error) ([2]; 300 mg/kg P.O.): 152.4 ± 11.4 PFC × 2,500/spleen; action on secondary inflammations (rat adjuvant arthritis; 3, 10 and 30 mg/kg orally): exerted an inhibitory action on these secondary inflammations in every dose; dose dependency of action on secondary inflammations (rat adjuvant arthritis; 3, 10 and 30 mg/kg orally): any definite dose dependency was not appreciated; decrease in body weight accompanying secondary inflammations (rat adjuvant arthritis; orally): an improving tendency; inhibitory action on primary inflammations caused by direct reaction of the adjuvant (rat adjuvant arthritis; orally): very slight
N-(4-Ethoxycarbonylmethylphenyl)-L-glutamine [Compound (1)]	91.7%	76.4%	85.2%	78.2%	85.7%	74.5%	No. of dead mice/No. of test animals (ddY mice; [4]): 0/5; No. of dead mice/No. of test animals (ddY mice; [5]): 0/5
N-(4-ethoxycarbonylmethylphenyl)-L-glutamine hydrochloride [Compound (11)]	84.1%	80.8%	77.7%	67.3%	89.8%	83.7%	–
N-(4-n-Butyloxycarbonylmethylphenyl)-L-glutamine [Compound (5)]	72.2%	84.7%	91.6%	95.7%	94.5%	82.2%	–
N-(4-n-Propyloxycarbonylmethylphenyl)-L-glutamine [Compound (4)]	91.7%	91.9%	70.4%	80.2%	91.7%	79.6%	–
N-[4-(2-Ethoxycarbonylethyl)phenyl]-L-glutamine [Compound (8)]	81.0%	80.6%	76.2%	76.7%	85.0%	92.3%	–
N-[4-(2-Ethoxycarbonylvinyl)phenyl]-L-glutamine [Compound (10)]	85.8%	109.9%	100%	101%	81.3%	82.6%	–
N-[4-(3-Ethoxycarbonyl-n-propyl)phenyl]-L-glutamine [Compound (9)]	100.6%	96.7%	91.3%	80.2%	85.3%	88.9%	–
